Assay: xn = mol fraction of the nth substance listed
Details: 100 kPa

CC(=O)[O-].CCCC[n+]1ccn(C)c1 + O
viscosity [mPa·s]
Details	278.15 K	283.15 K	293.15 K	298.15 K	303.15 K	313.15 K	323.15 K	333.15 K	343.15 K	353.15 K
x2 = 0.012	2390	1403	562	375	260	136.6	79.4	–	31.37	21.85
x2 = 0.0173	2429	1425	567	380	263	–	78	48.1	31.4	22.07
